Experimental data as given in US9844535B2, “SHP2 inhibitors and methods of treating autoimmune and/or glomerulonephritis-associated diseases using SHP2 inhibitors” (Indiana University Research and Technology Corporation, priority 2013, dated 2017).
Entries after “also recorded” stand apart in the source; their conditions may differ.

Columns and labels:
SLE-prone mice hearts = assay: Echocardiography; type: in vivo, mouse; conditions: vs vehicle-treated SLE mice
Description: Transthoracic echocardiography was conducted on non-anesthetized animals as described previously in Marin et al., J Clin Invest. 2011; 121:1026-1043, with a 13-MHz probe (Vivid 7, GE Medical Systems, Boston, Mass.) or VisualSonics Vevo 770 high-frequency ultrasound rodent imaging system (VisualSonics, Toronto, Ontario). GE Medical Systems or VisualSonics Vevo 770 software was used for data acquisition and subsequent analysis. Hearts were imaged in the 2-dimensional parasternal short-axis view, and an M-mode echocardiogram of the midventricular region was recorded at the level of the papillary muscles. Calculations of cardiac anatomic and functional parameters were carried out as described in Marin et al., J Clin Invest. 2011; 121:1026-1043.

SHP2 = SHP2 (Mus musculus (Mouse), UniProt P35235); assay: Immune complex PTP assay on tissue lysates of inhibitor-treated MRL/lpr mice; type: in vivo; conditions: 7.5 mg/kg daily for 4 weeks, listed as SHP2 inhibitor
Description: Briefly, female MRL/MpJ-fas lpr (MRL/lpr), MRL/Mpj and C57BL/6J mice were purchased from the Jackson Laboratory (Bar Harbor, Me.). For experiments, mice within each group were ip injected with either vehicle (DMSO) or the SHP2 inhibitor (7.5 mg/kg/per day). […] Body weight was measured daily and treatment dosage was adjusted accordingly. At the end of the treatment period, mice were sacrificed with CO2 exsanguination and SLE targeted organs were removed. For each mouse, spleen, kidney, and heart weight were calculated. In addition, total animal body weight and tibia length were measured. Peripheral blood/serum was also collected for use in the cytokine assays described below.
PTP assays were conducted as previously described in Kontaridis et al., J Biol Chem. 2006; 281:6785-6792, using para-nitrophenyl phosphate (pNPP, obtained from Sigma) as substrate. […] Reactions were terminated with 0.2 N NaOH and phosphate release was determined by measuring A410. […]

[1] = tested on: MRL/lpr mouse spleen immune cells; assay: Cellular immune response in spleen (histology, flow cytometry); type: in vivo
Excerpt: Harvested organs (kidney, spleen, and heart) to be used to assess morphometry and histochemistry were flushed with PBS, perfusion fixed in Bouin's reagent, and paraffin embedded. Sections (5 μm) were stained with Hematoxylin and Eosin (H&E), Periodic acid—Schiff stain (PAS), Masson-Trichrome, or reticulin staining at the Harvard Medical School Rodent Histopathology Core and scored using an unbiased approach, in which histology scores of 1 (normal) to 5 (most severe pathology) were designated to tissue sections which were only numerically labeled and in no particular order (by Dr. Roderick Bronson, director of the Rodent Histopathology Core, Harvard Medical School). Numerical sections were later decoded, marked for their designated score, and statistically analyzed. Images of the tissue sections were obtained and quantified on a Keyence BZ-9000 Microscope (Keyence Corporation, Itasca, Ill.).
Spleens were cut into 2 to 3 pieces each and homogenized on a 70 μm nylon mesh in 5 ml of HBSS buffer. The cells were filtered through a 70 μm nylon mesh to a new 50 ml tube and centrifuged at 2000 rpm for 5 minutes at room temperature. […]
To identify immune cell subsets, isolated cells from tissues were immunostained with mouse antibodies targeted against CD3E (145-2C11, BioLegend, San Diego, Calif.), CD4 (GK1.5, BioLegend), CD8 (53-6.7, eBioscience, San Diego, Calif.), CD45 (30-F11, eBioscience), CD 19 (6125, BioLegend), CD11b (M1170, BioLegend), TCRαβ (H57-597, BioLegend), CD44 (IM7, BioLegend), B220 (RA3-6B2, B.D. […], BD Biosciences, San Jose Calif.), CD138 (281-2, BioLegend), CD38 (CD28.2, BioLegend), Gr-1 (RB6.805, eBioscience), CD62L (DREG-56, BioLegend), and CD25 (PC61, BioLegend) for 30 minutes at 4° C. Samples were acquired on a LSR II flow cytometer (BD Biosciences) and the percentage of each sub-population of cells (B, T, monocytes, macrophage and neutrophils) was assessed by FlowJo [version 7.2.2 (Tree Star)]. Total cell numbers were counted using a hemocytometer. Absolute cell numbers for each sub-population were calculated based on the percentage of each population. […]

Chain of SHP2 (P35235 whole entry): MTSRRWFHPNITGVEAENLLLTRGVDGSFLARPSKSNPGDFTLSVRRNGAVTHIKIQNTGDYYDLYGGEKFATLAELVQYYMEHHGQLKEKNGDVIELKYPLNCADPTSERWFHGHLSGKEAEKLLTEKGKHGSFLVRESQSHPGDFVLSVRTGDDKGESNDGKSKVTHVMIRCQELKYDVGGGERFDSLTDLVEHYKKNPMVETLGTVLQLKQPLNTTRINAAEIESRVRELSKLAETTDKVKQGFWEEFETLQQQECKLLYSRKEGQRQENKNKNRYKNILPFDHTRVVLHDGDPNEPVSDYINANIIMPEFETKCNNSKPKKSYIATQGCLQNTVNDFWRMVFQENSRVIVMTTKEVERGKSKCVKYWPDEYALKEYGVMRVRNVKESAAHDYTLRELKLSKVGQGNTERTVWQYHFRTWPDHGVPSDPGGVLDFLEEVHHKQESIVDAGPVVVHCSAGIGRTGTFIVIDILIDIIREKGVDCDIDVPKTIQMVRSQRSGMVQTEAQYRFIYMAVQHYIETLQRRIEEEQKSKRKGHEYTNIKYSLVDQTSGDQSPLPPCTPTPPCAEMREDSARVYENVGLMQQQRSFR

Cn1c(-c2cccc(NC(=O)C(=O)Nc3ccc(-c4ccsc4)cc3)c2)c(I)c2cc(C(=O)O)c(O)cc21 [11a-1]
cardiac functional parameters (SLE-prone mice hearts): significantly improved functional parameters | left ventricular chamber dimension (SLE-prone mice hearts): decreased chamber | posterior wall thickness (SLE-prone mice hearts): increased posterior wall measurements | SHP2 activity in tissue lysates (SHP2): normalized SHP2 activity back to levels of WT; also recorded: normalize SHP2 activity | overall splenic T cell counts ([1]; MRL/lpr mice): overall splenic T cell counts were reduced | splenic CD4, CD8 and double-negative T cells ([1]; MRL/lpr mice): significant reduction in CD4, CD8, and double-negative T cells | germinal center formation in the spleen ([1]; MRL/lpr mice vs vehicle): greatly reduced
